Data reported in PubChem BioAssay (NCI).
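Test compounds were applied to cells in 96-well plates for 48 hours at 5 doses. GI50 is the concentration that inhibits growth by half. At the TGI there is no net growth.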

Experiments:
Assay in all cases: NCI tumour cell line growth inhibition, 48 h
CCRF-CEM leukemia = tested on: CCRF-CEM leukemia
HOP-92 NSCLC = tested on: HOP-92 NSCLC
NCI-H23 lung = tested on: NCI-H23 lung
OVCAR-3 ovarian = tested on: OVCAR-3 ovarian
OVCAR-4 ovarian = tested on: OVCAR-4 ovarian
RPMI-8226 leukemia = tested on: RPMI-8226 leukemia
SF-268 CNS = tested on: SF-268 CNS
SK-MEL-2 melanoma = tested on: SK-MEL-2 melanoma
HS 578T breast = tested on: HS 578T breast
T-47D breast = tested on: T-47D breast

COc1ccc(S(=O)(=O)Nc2ccccc2C(=O)O)cc1 was tested, and the TGI (CCRF-CEM leukemia) was greater than 100 µM, the TGI (HOP-92 NSCLC) was greater than 100 µM and the TGI (NCI-H23 lung) was greater than 100 µM. It also gave a TGI (OVCAR-3 ovarian) greater than 100 µM, a TGI (OVCAR-4 ovarian) greater than 100 µM and a TGI (RPMI-8226 leukemia) greater than 100 µM. The TGI (SF-268 CNS) was greater than 100 µM and the TGI (SK-MEL-2 melanoma) was greater than 100 µM.
In the case of C#Cc1cccc(N2C(=O)CCC2=O)c1, the TGI (CCRF-CEM leukemia) is reported as 8.11 µM, the TGI (HS 578T breast) is reported as 85.8 µM and the TGI (NCI-H23 lung) is reported as 24.5 µM. For the same compound, the TGI (OVCAR-3 ovarian) was 37.3 µM, the TGI (OVCAR-4 ovarian) was 20.5 µM and the TGI (RPMI-8226 leukemia) was 15.9 µM. The TGI (SF-268 CNS) was 33.1 µM, the TGI (SK-MEL-2 melanoma) was 36.6 µM and the TGI (T-47D breast) was 56.8 µM.
C=C(COC(C)=O)CC(OC(C)=O)c1ccccc1 (centres undefined) was tested, and the TGI (CCRF-CEM leukemia) was greater than 100 µM, the TGI (HOP-92 NSCLC) was greater than 100 µM and the TGI (NCI-H23 lung) was greater than 100 µM. The TGI (OVCAR-3 ovarian) was greater than 100 µM, the TGI (OVCAR-4 ovarian) was greater than 100 µM and the TGI (RPMI-8226 leukemia) was greater than 100 µM. For the same compound, the TGI (SF-268 CNS) was greater than 100 µM and the TGI (SK-MEL-2 melanoma) was greater than 100 µM.
CC1CCC2(CC1)NN=c1s/c(=C\c3ccc(O)cc3)c(=O)n1N2 (centres undefined) gave a TGI (CCRF-CEM leukemia) greater than 100 µM, a TGI (NCI-H23 lung) greater than 100 µM and a TGI (OVCAR-3 ovarian) greater than 100 µM. For the same compound, the TGI (OVCAR-4 ovarian) was greater than 100 µM, the TGI (RPMI-8226 leukemia) was greater than 100 µM and the TGI (SF-268 CNS) was greater than 100 µM.
With C=C1C(O)C2C(=C(CCc3ccccc3)C13CC3)C(=O)C(C)(CO)C2O (centres undefined) the GI50 (CCRF-CEM leukemia) was greater than 100 µM, the TGI (CCRF-CEM leukemia) was greater than 100 µM and the GI50 (HOP-92 NSCLC) was 12.5 µM. It also gave a TGI (HOP-92 NSCLC) greater than 100 µM, a GI50 (HS 578T breast) of 14.3 µM and a TGI (HS 578T breast) of 99.8 µM. The GI50 (NCI-H23 lung) was greater than 100 µM, the TGI (NCI-H23 lung) was greater than 100 µM and the GI50 (OVCAR-3 ovarian) was greater than 100 µM. The TGI (OVCAR-3 ovarian) was greater than 100 µM, the GI50 (OVCAR-4 ovarian) was greater than 100 µM and the TGI (OVCAR-4 ovarian) was greater than 100 µM. For the same compound, the GI50 (RPMI-8226 leukemia) was 22.2 µM, the TGI (RPMI-8226 leukemia) was 70.2 µM and the GI50 (SF-268 CNS) was greater than 100 µM. For the same compound, the TGI (SF-268 CNS) was greater than 100 µM, the GI50 (SK-MEL-2 melanoma) was greater than 100 µM and the TGI (SK-MEL-2 melanoma) was greater than 100 µM.
For COc1ccc(OC)c2c1CC(C(=O)O)(C(=O)O)CC2=O, the TGI (HOP-92 NSCLC) was greater than 100 µM, the TGI (NCI-H23 lung) was greater than 100 µM and the TGI (OVCAR-3 ovarian) was greater than 100 µM. For the same compound, the TGI (OVCAR-4 ovarian) was greater than 100 µM, the TGI (SF-268 CNS) was greater than 100 µM and the TGI (SK-MEL-2 melanoma) was greater than 100 µM.
COc1ccc(OC)c(/C(C)=N/NC(N)=S)c1 showed a TGI (CCRF-CEM leukemia) greater than 100 µM, a TGI (HOP-92 NSCLC) greater than 100 µM and a TGI (NCI-H23 lung) greater than 100 µM. It also gave a TGI (OVCAR-3 ovarian) greater than 100 µM, a TGI (OVCAR-4 ovarian) greater than 100 µM and a TGI (RPMI-8226 leukemia) greater than 100 µM. For the same compound, the TGI (SF-268 CNS) was greater than 100 µM and the TGI (SK-MEL-2 melanoma) was greater than 100 µM.
Compound COC(=O)N(C(=O)OC)C(C(=O)O)C(C)C (centres undefined) has a TGI (HOP-92 NSCLC) greater than 100 µM, a TGI (NCI-H23 lung) greater than 100 µM and a TGI (OVCAR-4 ovarian) greater than 100 µM. It also gave a TGI (SF-268 CNS) greater than 100 µM and a TGI (SK-MEL-2 melanoma) greater than 100 µM.
With Fc1ccc2[nH]cc(-c3nonc3-c3c[nH]c4ccc(Br)cc34)c2c1 the GI50 (CCRF-CEM leukemia) was 3.07 µM, the TGI (CCRF-CEM leukemia) was 14.9 µM and the GI50 (HOP-92 NSCLC) was 1.97 µM. The TGI (HOP-92 NSCLC) was 5.52 µM, the GI50 (HS 578T breast) was 2.27 µM and the TGI (HS 578T breast) was 5.96 µM. The GI50 (NCI-H23 lung) was 1.95 µM, the TGI (NCI-H23 lung) was 5.86 µM and the GI50 (OVCAR-3 ovarian) was 2.07 µM. The TGI (OVCAR-3 ovarian) was 5.43 µM, the GI50 (OVCAR-4 ovarian) was 3.45 µM and the TGI (OVCAR-4 ovarian) was 18.5 µM. The GI50 (RPMI-8226 leukemia) was 2.49 µM, the TGI (RPMI-8226 leukemia) was 9.91 µM and the GI50 (SF-268 CNS) was 3.01 µM. It also gave a TGI (SF-268 CNS) of 12.4 µM, a GI50 (SK-MEL-2 melanoma) of 2.23 µM and a TGI (SK-MEL-2 melanoma) of 5.13 µM.
C[N-]c1nnnn1C.[Au+].c1ccc([PH+](c2ccccc2)c2ccccc2)cc1 gave a GI50 (CCRF-CEM leukemia) of 0.556 µM, a TGI (CCRF-CEM leukemia) of 3.44 µM and a GI50 (HOP-92 NSCLC) of 2.67 µM. For the same compound, the TGI (HOP-92 NSCLC) was 5.42 µM, the GI50 (NCI-H23 lung) was 1.97 µM and the TGI (NCI-H23 lung) was 4.48 µM. For the same compound, the GI50 (OVCAR-3 ovarian) was 2.58 µM, the TGI (OVCAR-3 ovarian) was 6.53 µM and the GI50 (OVCAR-4 ovarian) was 3.19 µM. It also gave a TGI (OVCAR-4 ovarian) of 12.9 µM, a GI50 (RPMI-8226 leukemia) of 1.29 µM and a TGI (RPMI-8226 leukemia) of 4.54 µM. For the same compound, the GI50 (SF-268 CNS) was 3.5 µM, the TGI (SF-268 CNS) was 15.4 µM and the GI50 (SK-MEL-2 melanoma) was 1.66 µM. For the same compound, the TGI (SK-MEL-2 melanoma) was 3.78 µM.
For CC(C)CC(NC(=O)c1cccc(O)c1O)C(=O)NCc1cc(CNC(=O)C(CC(C)C)NC(=O)c2cccc(O)c2O)cc(CNC(=O)C(CC(C)C)NC(=O)c2cccc(O)c2O)c1 (centres undefined), the TGI (CCRF-CEM leukemia) was 54 µM, the TGI (HOP-92 NSCLC) was 32 µM and the TGI (NCI-H23 lung) was 36.1 µM. It also gave a TGI (OVCAR-3 ovarian) of 19.7 µM, a TGI (OVCAR-4 ovarian) of 56.5 µM and a TGI (RPMI-8226 leukemia) of 21.8 µM. The TGI (SF-268 CNS) was greater than 100 µM and the TGI (SK-MEL-2 melanoma) was 29 µM.
With O=c1nc(/C=C/c2ccccc2Cl)cc2n1CCN2CCO the TGI (CCRF-CEM leukemia) was greater than 100 µM, the TGI (HOP-92 NSCLC) was greater than 100 µM and the TGI (OVCAR-3 ovarian) was 79.8 µM. It also gave a TGI (OVCAR-4 ovarian) greater than 100 µM, a TGI (RPMI-8226 leukemia) greater than 100 µM and a TGI (SF-268 CNS) greater than 100 µM. For the same compound, the TGI (SK-MEL-2 melanoma) was greater than 100 µM.
O=C1c2ccccc2C(Br)(Br)c2ccccc21 showed a TGI (CCRF-CEM leukemia) greater than 31.6 µM, a TGI (HOP-92 NSCLC) greater than 100 µM and a TGI (NCI-H23 lung) greater than 100 µM. The TGI (OVCAR-3 ovarian) was greater than 31.6 µM, the TGI (OVCAR-4 ovarian) was greater than 31.6 µM and the TGI (SF-268 CNS) was greater than 31.6 µM. For the same compound, the TGI (SK-MEL-2 melanoma) was greater than 31.6 µM.
COc1cc(NC(N)=NCCC(C)(C)Oc2ccc(C(F)(F)F)cc2)ncc1C#N was tested, and the GI50 (HOP-92 NSCLC) was 1.38 µM, the TGI (HOP-92 NSCLC) was 2.8 µM and the GI50 (NCI-H23 lung) was 1.43 µM. For the same compound, the TGI (NCI-H23 lung) was 2.81 µM, the GI50 (OVCAR-3 ovarian) was 1.68 µM and the TGI (OVCAR-3 ovarian) was 3.17 µM. The GI50 (OVCAR-4 ovarian) was 1.58 µM, the TGI (OVCAR-4 ovarian) was 3.07 µM and the GI50 (SF-268 CNS) was 1.72 µM. It also gave a TGI (SF-268 CNS) of 3.31 µM, a GI50 (SK-MEL-2 melanoma) of 1.79 µM and a TGI (SK-MEL-2 melanoma) of 3.27 µM. For the same compound, the GI50 (T-47D breast) was 1.56 µM and the TGI (T-47D breast) was 3.29 µM.
For Cc1cc2c(ccc3c(C)cc(=O)oc32)o1, the TGI (CCRF-CEM leukemia) was greater than 100 µM, the TGI (HOP-92 NSCLC) was greater than 100 µM and the TGI (NCI-H23 lung) was greater than 100 µM. It also gave a TGI (OVCAR-3 ovarian) greater than 100 µM, a TGI (OVCAR-4 ovarian) greater than 100 µM and a TGI (RPMI-8226 leukemia) greater than 100 µM. For the same compound, the TGI (SF-268 CNS) was greater than 100 µM and the TGI (SK-MEL-2 melanoma) was greater than 100 µM.
Compound COc1ccc(Nc2nc3ccc(C(F)(F)F)cc3nc2-c2ccccc2)cc1OC has a TGI (CCRF-CEM leukemia) greater than 100 µM, a TGI (HOP-92 NSCLC) of 36.9 µM and a TGI (NCI-H23 lung) greater than 100 µM. It also gave a TGI (OVCAR-3 ovarian) greater than 100 µM, a TGI (OVCAR-4 ovarian) greater than 100 µM and a TGI (SF-268 CNS) greater than 100 µM. The TGI (SK-MEL-2 melanoma) was greater than 100 µM.
With CCCCCC[N+](C)(C)Cc1ccc(C[N+](C)(C)CCCCCC)cc1 the TGI (HOP-92 NSCLC) was 7.17 µM, the TGI (OVCAR-3 ovarian) was 14.4 µM and the TGI (OVCAR-4 ovarian) was greater than 100 µM. For the same compound, the TGI (RPMI-8226 leukemia) was 9.96 µM, the TGI (SF-268 CNS) was greater than 100 µM and the TGI (SK-MEL-2 melanoma) was 5.15 µM.
